These results are taken from patent US4599337A, “Antiphlogistic/antipyretic/analgesic agents containing theobromine or theophylline derivatives as active ingredient” (Eisai Co., Ltd., priority 1985, dated 1986).

Read-outs that look alike come from different tables or passages of the source. A value given as a limit tells only on which side of the number the result lay.

For one data set, the system named is Wistar rats. The data set can be described thus: Antiphlogistic activity, carrageenin paw edema. The data set is classed as in vivo, rat (Wistar). The settings on record: Rattus norvegicus, po, 3 h. As to the method: Each test compound of this invention was administered orally to Wistar rats of about 300 g body weight, and 30 minutes later 0.05 ml of a 1% carrageenin solution was injected into a paw of each rat.
(In general: Carrageenan injected into the paw causes an acute inflammation.)

Data set [1] has as its system SD male rats. The data set is described as follows: Antipyretic activity, dry yeast-induced fever. The data set is classed as in vivo, rat (SD male). The settings on record: Rattus norvegicus, po, p.o. As to the method:
A 2% suspension of dry yeast was injected subcutaneously to SD male rats of 250 to 300 g body weight in an amount of 2 ml/animal to cause a fever, and 4 hours later, the compounds of this invention and control drugs were administered orally. The rectal temperature of each rat was measured periodically, and the dosage of each compound required to reduce the fever by more than 1° C. at the peak of its activity was determined.

A short description of the next data set: Acute toxicity in rats. On the set-up: species or system rat (SD male). The settings on record: rat, in vivo, po. As to the method: (§1) Ten mice were used for each dose and morality was determined for 3 days after administration of each test compound of the invention. In the case of the rats, 5 rats were used for each dose and morality was determined 7 days after administrations.

The nature of a further data set: Acute toxicity in mice. The settings on record: mouse, in vivo, po. On the set-up: species or system mouse (ddy male). As to the method: as §1
The subject of the next data set is ddy-strain male mice. The data set is described as follows: Analgesic activity, acetic acid writhing method. The data set is classed as in vivo, mouse (ddy-strain male). The settings on record: p.o.; for Analgesic activity ED50: acetic acid writhing. As to the method:
(a) Acetic acid writhing method^1
A 0.7% acetic acid solution was injected intraperitoneally to ddy-strain male mice (20 to 25 g) in an amount of 0.1 ml per 10 g mouse body weight to cause a writhing syndrome typified by stretching of the hind legs. The inhibitory action of each test compound against said symptom was observed as a measure of the analgesic activity of the compound. In the tests, each of the compounds of this invention and each of the control drugs listed below were administered orally to each test animal, and 50 minutes later said acetic acid solution was injected in the manner described above and the total number of typical writhes was determined over a period of 15 minutes.
For orientation: An intraperitoneal irritant provokes the stretching counted in writhing tests.

The test system of data set [2] is SD male rats. The data set can be described thus: Analgesic activity, bradykinin-induced pain response. It is filed as in vivo, rat (SD male). The settings on record: p.o.; for Safety margin (LD50 /ED50): Table 2, rats; for Analgesic activity ED50 / Saftety margin (LD50 /ED50): Table 4, rats. As to the method: (b) Bradykinin-induced pain response^3,4
A polyethylene tube was inserted into a common right carotid artery of SD male rats (250 to 350 g) and 0.5 microngram per 0.1 ml of bradykinin was injected into the artery through said tube. Response induced by bradykinin such as flexin of the right forelimb, dextro-rotation of the head and rearing were considered as being indices of pain response, and the analgesic action of each test compound was determined by observing its inhibition of responses such symptoms.

The test system of data set [3] is SD male rats. The settings on record: p.o., given in Japan National Formulary, 6th Ed. (1982), 10080 min, cited from earlier work.
In another data set the test system is ddy male mice. The settings on record: p.o., given in Japan National Formulary, 6th Ed. (1982), 4320 min, cited from earlier work.
Where [4] appears, read: rats, read-out: effective dose ED for reducing the fever by more than 1° C. at the peak of its activity.
The mark [5] stands for this setting: Table 5, rats, read-out: ED (effective dose for reducing the fever by more than 1° C. when the compound action is at the peak).

Turning to `Cn1cnc2c1c(=O)n(CCCN1CCN(c3ccc(Cl)c(Cl)c3)CC1)c(=O)n2C` [Compound A', 1-(3-(4-(3,4-dichlorophenyl)piperazinyl-(1))-n-propyl)theobromine], in the data set with Wistar rats (Table 7, rats), the ED30 came to 25 mg/kg. The ED (fever reduced by more than 1 degC) with SD male rats [1] (setting [4]) stood at 40 mg/kg.
As for `Cn1c(=O)c2c(ncn2CCCCN2CCN(c3ccc(F)cc3)CC2)n(C)c1=O` [Compound A], the ED30 with Wistar rats (Table 6, rats) stood at 10 mg/kg. The LD50 at 168 h in “Acute toxicity in rats” (Table 2, rats) lay within 353 to 500 mg/kg. In “Acute toxicity in mice” (Table 1, mice), this molecule returned an LD50 at 72 h of 344 mg/kg. Besides, in the data set on SD male rats [1] (setting [5]), the ED (fever reduced by more than 1 degC) was 10 mg/kg.
Turning to `Cc1cccc(N2CCN(CCn3c(=O)c4c(ncn4C)n(C)c3=O)CC2)c1C` [Compound B', 1-(2-(4-(2,3-dimethylphenyl)piperazinyl-(1))-ethyl)theobromine.2HCl], the LD50 at 168 h in the data set “Acute toxicity in rats” (Table 4, rats) was not below 2000 mg/kg. For the same molecule, the LD50 at 72 h in the data set “Acute toxicity in mice” (Table 3, mice) was determined as 600 mg/kg.
Molecule `Cn1c(=O)c2c(ncn2CCCCCN2CCN(c3ccc(Cl)cc3)CC2)n(C)c1=O` [Compound B] registered an ED30 with Wistar rats (Table 6, rats) of 50 mg/kg. The same molecule had an LD50 at 168 h in the data set “Acute toxicity in rats” (Table 2, rats) of 353 to 500 mg/kg. The molecule further had an LD50 at 72 h in the data set “Acute toxicity in mice” (Table 1, mice) of 704 mg/kg. In addition, the ED (fever reduced by more than 1 degC) in the data set on SD male rats [1] (setting [5]) is 40 mg/kg.
Molecule `Cn1cnc2c1c(=O)n(CCCN1CCN(c3ccccc3Cl)CC1)c(=O)n2C` [Compound C', 1-(3-(4-o-chlorophenylpiperazinyl-(1))-n-propyl)theobromine.2HCl] gave an ED30 in the data set on Wistar rats (Table 7, rats) of 10 mg/kg. The molecule further registered an LD50 at 72 h in the data set “Acute toxicity in mice” (Table 3, mice) of 200 mg/kg.
In turn, `Cc1ccc(N2CCN(CCCn3cnc4c3c(=O)n(C)c(=O)n4C)CC2)cc1C` [Compound C] showed a 50% lethal dose (LD50) at 168 h in the data set “Acute toxicity in rats” (Table 2, rats) of 770 mg/kg. In the data set “Acute toxicity in mice” (Table 1, mice), the LD50 at 72 h is not below 800 mg/kg. In addition, in the data set on SD male rats [1] (setting [5]), the ED (fever reduced by more than 1 degC) is 10 mg/kg.
In the data set “Acute toxicity in mice” (Table 3, mice), `COc1ccccc1N1CCN(CCCCn2c(=O)c3c(ncn3C)n(C)c2=O)CC1` [Compound D', 1-(4-(4-o-methoxyphenylpiperazinyl-(1))-n-butyl)theobromine.2HCl] yielded a median lethal dose (LD50) at 72 h of 400 to 800 mg/kg.
In turn, `Cn1c(=O)c2c(ncn2CCCCN2CCN(c3ccc(Cl)cc3)CC2)n(C)c1=O` [Compound D] displayed an ED30 with Wistar rats (Table 6, rats) of 25 mg/kg. In the data set “Acute toxicity in rats” (Table 2, rats), the LD50 at 168 h was determined as 505 mg/kg. For the same molecule, in “Acute toxicity in mice” (Table 1, mice), the LD50 at 72 h amounted to 575 mg/kg. In addition, the ED (fever reduced by more than 1 degC) with SD male rats [1] (setting [5]) was 40 mg/kg.
The molecule `Cn1cnc2c1c(=O)n(CCCCN1CCN(c3ccc(F)cc3)CC1)c(=O)n2C` [Compound E', 1-(4-(4-p-fluoropenylpiperazinyl-(1))-n-butyl)theobromine.2HCl] gave an ED30 in the data set on Wistar rats (Table 7, rats) of 25 mg/kg. The 50% lethal dose (LD50) at 72 h in the data set “Acute toxicity in mice” (Table 3, mice) came to 200 mg/kg.
`Cn1cnc2c1c(=O)n(CCCCN1CCN(c3ccc(Cl)c(Cl)c3)CC1)c(=O)n2C` [Compound F', 1-(4-(4-(3,4-dichlorophenyl)piperazinyl-(1))-n-butyl)theobromine.2HCl] gave an LD50 at 72 h in “Acute toxicity in mice” (Table 3, mice) of 400 to 800 mg/kg.
As for `Cn1c(=O)c2c(ncn2CCCCCN2CCN(c3cccc(C(F)(F)F)c3)CC2)n(C)c1=O` [Compound F], the ED30 with Wistar rats (Table 6, rats) was found to be 25 mg/kg. In the data set “Acute toxicity in rats” (Table 2, rats), this molecule came in with an LD50 at 168 h of 660 mg/kg. In “Acute toxicity in mice” (Table 1, mice), this molecule yielded an LD50 at 72 h not below 800 mg/kg. Also, the ED (fever reduced by more than 1 degC) with SD male rats [1] (setting [5]) came out at 10 mg/kg.
For `Cc1cccc(N2CCN(CCCCCn3c(=O)c4c(ncn4C)n(C)c3=O)CC2)c1` [Compound G', 1-(5-(4-m-methylphenylpiperazinyl-(1))-n-pentyl)theobromine.2HCl], the ED30 in the data set with Wistar rats (Table 7, rats) was 25 mg/kg. In addition, in the data set “Acute toxicity in mice” (Table 3, mice), the LD50 at 72 h was 300 mg/kg. Also, the “Safety margin (LD50 /ED50)” value with ddy-strain male mice (Table 3, mice) was 22.
With `COc1cc(C)nc(-n2nc(C)cc2OC)n1` [Control drug I, 4-methoxy-2-(5-methoxy-3-methylpyrazol-1-yl)-6-methylpyrimidine], the “Safety margin (LD50 /ED50)” value in the data set with SD male rats [2] is on record as not above 3; with ddy-strain male mice (Table 1, mice) it was 4.3; with ddy-strain male mice (Table 3, mice), 4.3. Further, the “Analgesic activity ED50” value is listed as not below 160 mg/kg with SD male rats [2] and 240 mg/kg with ddy-strain male mice (Table 3, mice). Moreover, the “Saftety margin (LD50 /ED50)” value with SD male rats [2] is not above 3. Moreover, the ED (fever reduced by more than 1 degC) in the data set on SD male rats [1] (setting [4]) and with SD male rats [1] (setting [5]) was 40 mg/kg in each case. Moreover, the “Acute toxicity LD50” value is 526 mg/kg with SD male rats [3] (Table 2, rats); 526 mg/kg in the data set on SD male rats [3] (Table 4, rats); 1,022 mg/kg in the data set with ddy male mice (Table 1, mice); 1022 mg/kg in the data set with ddy male mice (Table 3, mice).
Turning to `O=C(Cn1c(=O)sc2ccc(Cl)cc21)N1CCN(CCO)CC1` [Control drug II, 4-((5-chloro-2-oxo-3(2H)-benzothiazolyl)acetyl)-1-piperazineethanol], the “Safety margin (LD50 /ED50)” value in the data set on SD male rats [2] was not above 23; in the data set on ddy-strain male mice (Table 1, mice), 8.5; with ddy-strain male mice (Table 3, mice), 8.5. Further, the “Analgesic activity ED50” value with SD male rats [2] is listed as not below 160 mg/kg; in the data set with ddy-strain male mice (Table 3, mice) it was 66 mg/kg. In the data set on SD male rats [2], the “Saftety margin (LD50 /ED50)” value is reported as not above 23. The ED (fever reduced by more than 1 degC) with SD male rats [1] (setting [4]) and with SD male rats [1] (setting [5]) was 40 mg/kg throughout. The “Acute toxicity LD50” value with ddy male mice (Table 1, mice) is on record as 664 mg/kg; in the data set on ddy male mice (Table 3, mice), 564 mg/kg.
As to `OC(CN1CCCCC1)c1cc(-c2ccccc2)on1` (centres unmarked) [Control drug III, 3-(1-hydroxy-2-piperadinoethyl)-5-phenyl-isoxazole], the “Safety margin (LD50 /ED50)” value in the data set on SD male rats [2] was found to be 12; with ddy-strain male mice (Table 1, mice), 5.1; in the data set on ddy-strain male mice (Table 3, mice), 5.1. In addition, in the data set on SD male rats [2], the “Saftety margin (LD50 /ED50)” value amounted to 12. The ED (fever reduced by more than 1 degC) in the data set on SD male rats [1] (setting [4]) and in the data set with SD male rats [1] (setting [5]) was 160 mg/kg in each case. Besides, in the data set with ddy-strain male mice (Table 3, mice), the “Analgesic activity ED50” value came to 120 mg/kg. The “Acute toxicity LD50” value with SD male rats [3] (Table 2, rats) is recorded as 1,978 mg/kg; in the data set with SD male rats [3] (Table 4, rats), 1,978 mg/kg; in the data set on ddy male mice (Table 1, mice) it was 612 mg/kg; with ddy male mice (Table 3, mice) it was 612 mg/kg.

In general, LD50 refers to the dose at which mortality reaches 50%. A higher LD50 goes with a less toxic substance.
